The conditions of data set [1]: disclosed mGlu4 PAMs; cited from earlier work.
For data set [2] the following is noted: previously reported tool compounds; cited from earlier work.
For data set [3] the following is noted: previously reported tool compounds; cited from earlier work. This is another data set of the same source.
Another data set deals with mGlu1,2,3. The following applies: 10 point concentration-response prior to EC20 agonist.
The nature of data set [4]: rat in vivo pharmacokinetics, IV and PO. The following applies: for CL / clearance: IV 1 mg/kg, hydrochloride, 10% EtOH, 80% PEG-400, 10% saline; for clearance: CL.
For data set [5], the system named is haloperidol-induced catalepsy. The experiment in a line: reversal of haloperidol-induced catalepsy. The following applies: rat, p.o., haloperidol 0.75 mg/kg, 30 min, vs vehicle control. Type of data set: in vivo.
Data set [6] relates to 68 GPCRs, ion channels and transporters. The experiment in a line: Ricerca Lead Profiling Screen. The following applies: 10 µM; all 68 assays. The class given is binding.
Data set [7] can be described thus: IV cassette pharmacokinetics in beagle dog. Conditions: in vivo.
The nature of data set [8]: IV cassette pharmacokinetics in rhesus monkey. The following applies: in vivo.

The text below walks through data of paper PMC3226828 (Journal of medicinal chemistry, 2011).

As for `COc1cc(NC(=O)c2ccccn2)ccc1Cl` [compound 2], the “CNS penetration when dosed systemically” value in data set [1] is reported as “CNS penetrant”. In data set [2], the “rat CLHEP” value was 65.5 mL/min/kg. Besides, the “rPPB (%fu)” value in data set [3] is 2.4 %fu.

The MRT is the average time that molecules of a dose stay in the body. Usually half-life stands for the time in which the quantity being followed falls by half. As usually defined, the AUC(0-t) is exposure summed from dosing to a finite time, without extrapolation to infinity. On to `O=C(Nc1ccc(N2C(=O)[C@@H]3[C@H](C2=O)[C@@H]2C=C[C@H]3C2)c(Cl)c1)c1ccccn1` [15f], for which, in the data set on mGlu1,2,3, the “activity at mGlu 1, 2, 3” value is “inactive”. For the same compound, the CL in [4] (1 mg/kg) is on record as 36.9 mL/min/kg. In data set [4] (in vivo, iv, 1 mg/kg), this compound gave an MRT of 8.22 h, a Vd of 18 L/kg, a half-life of 0.673 h and a clearance of 37 mL/min/kg. Also, the exposure AUC(0-t) in data set [4] (in vivo, po, 10 mg/kg) was 4350 ng·h/mL. For the same compound, the “reversal of haloperidol-induced catalepsy” value in [5] is reported as “produced a reversal of haloperidol-induced catalepsy”. Further, in [5] (listed as ML182), the “reversal of haloperidol-induced catalepsy” value is on record as “orally active”. In addition, the “inhibition of radioligand binding” value in [6] is listed as at most 50%.

`O=C(Nc1ccc(N2C(=O)CC3(CCCCC3)C2=O)c(Cl)c1)c1ccccn1` [15j, N-(3-Chloro-4-(1,3-dioxo-2-azaspiro[4.5]decan-2-yl)phenyl)picolinamide]: the CL in data set [4] (1 mg/kg) is on record as 48.3 mL/min/kg. In [4] (in vivo, iv, 1 mg/kg), the mean residence time (MRT) was 0.953 h and the clearance was 48 mL/min/kg.

Turning to `O=C(Nc1ccc(N2C(=O)CC(c3ccccc3)C2=O)c(Cl)c1)c1ccccn1` (centres unmarked) [15k, N-(3-Chloro-4-(2,5-dioxo-3-phenylpyrrolidin-1-yl)phenyl)picolinamide], the clearance in [7] worked out at 7 mL/min/kg; in data set [4] (in vivo, iv, 1 mg/kg), 5.4 mL/min/kg; in data set [8], 3 mL/min/kg. The compound also showed an MRT in data set [4] (in vivo, iv, 1 mg/kg) of 1.82 h.
